Article PMC3070621, “Generation of novel cationic antimicrobial peptides from natural non-antimicrobial sequences by acid-amide substitution” (Annals of Clinical Microbiology and Antimicrobials, 2011)
No end group written: not given here.

Experiments:
[1] = system: Bacillus subtilis IFO3134; format: cell-based; conditions: IFO3134, 2 h, pH 7.5
Method: (§1) Microbicidal assay was performed as previously described. A low ionic strength condition was used to detect bactericidal activity with higher sensitivity. Briefly, each microbial strain in the mid-exponential phase was suspended in 10 mM Tris/HCl, pH 7.5. The microbial suspension was mixed with peptides. After 2 h incubation, the suspension was diluted 1,000 times and inoculated on to plates of IFO702 medium (1% polypeptone, 0.2% yeast extract, 0.1% MgSO4 7H2O, 2% agar). The numbers of colonies were counted, and a plot of peptide concentration vs colony number was created.

Escherichia coli JM109 = format: cell-based; conditions: JM109, 2 h, pH 7.5
Method: as §1

[2] = system: Micrococcus luteus IFO12708; format: cell-based; conditions: IFO12708, 2 h, pH 7.5
Method: as §1

[3] = system: Pseudomonas aeruginosa IFO3899; format: cell-based; conditions: IFO3899, 2 h, pH 7.5
Method: as §1

[4] = system: Saccharomyces cerevisiae MAFF113011; format: cell-based; conditions: MAFF113011, 2 h, pH 7.5
Method: as §1

[5] = system: Salmonella typhimurium IFO13245; format: cell-based; conditions: murium IFO13245, 2 h, pH 7.5
Method: as §1

[6] = system: Serratia marcescens IFO3736; format: cell-based; conditions: IFO3736, 2 h, pH 7.5
Method: as §1

[7] = system: Staphylococcus aureus IFO12732; format: cell-based; conditions: IFO12732, 2 h, pH 7.5
Method: as §1

[8] = cited from earlier work
Human erythrocytes = assay: Hemolytic assay; format: cell-based; conditions: peptide 300 μg/mL, 10 mM Tris-HCl pH 7.5 with 308 mM sucrose, 0.5 h, A540, pure water = 100% lysis
Method: Hemolytic assay was performed as previously described. Human erythrocytes were used. Hemolysis was estimated as the leakage of haemoglobin. The erythrocytes were washed and resuspended in 10 mM Tris-HCl, pH 7.5, containing 308 mM sucrose. The erythrocyte suspension was diluted by 30%. The diluted suspension was mixed with the equal volume of peptide solution dissolved in the same buffer. After 0.5 h of incubation, the test suspension was centrifuged to remove the intact erythrocytes. The supernatant was diluted, and A540 was measured. The hemolysis caused by pure water was defined as 100% lysis.

[9] = Liposome disruption assay (calcein release), PG/CL liposomes; conditions: PG:CL = 3:1 (molar), 10 mM Tris-HCl pH 7.5 with 350 mM sucrose, room temperature, three independent trials
Method: (§2) Membrane-disrupting activity was estimated by liposome disruption assay. Bovine heart phosphatidylglycerol (PG), egg cardiolipin (CL), and egg phosphatidylcholine (PC) were purchased from Avanti Polar Lipids, Inc., Alabama, USA. A lipid film was prepared by rotary evaporation of lipid solution (1 mg lipid in 1 ml chloroform). The lipid film was hydrated with 1 ml of 10 mM Tris-HCl buffer (pH 7.5) containing 75 mM calcein. Lipid dispersions were sonicated and subjected to five freeze-thaw cycles. Non-trapped calcein was removed by gel filtration on a Sephacryl S-300 spin column (GE Healthcare Bio-Science Corp., Piscataway, NJ, USA) equilibrated with 10 mM Tris-HCl (pH 7.5) containing 175 mM NaCl and 1 mM EDTA. These calcein-entrapped liposomes were diluted at a ratio of 1:1000 in 10 mM Tris-HCl (pH 7.5) containing 350 mM sucrose. Calcein release after membrane disruption was evaluated by measuring fluorescence intensity at 515 nm with excitation at 492 nm on a RF-5300PC spectrofluorometer at room temperature.
Figure 4 Membrane-disruption against acidic-liposomes. Calcein release from vesicles consisting of PG:CL = 3:1 was measured. Each point was obtained from three independent trials using a single preparation of liposomes and peptides, and represents the mean ± standard error of the mean.

[10] = Liposome disruption assay (calcein release), PC liposomes
Method: as §2

[11] = Precipitation in the presence of PG/CL liposomes (CD sample conditions); format: physicochemical; conditions: peptide 100 μg/ml, PG/CL liposome 500 μg/ml, 10 mM Tris-HCl pH 7.5, 20°C
Method: CD spectra were recorded on a J-720 spectropolarimeter (JASCO, Tokyo, Japan) in the far-ultraviolet (UV) range from 190 to 260 nm using a 0.1 cm thermostatted cell at 25°C. Peptides were dissolved in 10 mM Tris-HCl (pH 7.5) containing tri-fluoroethanol (TFE) at 0-100%. For measurement under the presence of liposomes, peptides were dissolved at 100 μg/ml containing 500 μg/ml liposomes at 20°C.
Furthermore, membrane-disruptive activities against liposomes were also estimated. A liposome dye-leakage assay was used. […] In contrast, NP2P and NP3P damaged the PG/CL liposome membrane at ≥0.3 μg/ml (Figure 4). The concentration was equal or lower than MBCs against Gram-positive bacteria, which were measured under identical ionic conditions. […] Since CD spectra could not be measured, the conformation of NP3P in the presence of PG/CL membrane remains unclear.

HRRSVAHQEEASLHVKTDELPSPDTVREQL-OH [P4P]
MBC [1]: >300 (>300) μg/ml | MBC (Escherichia coli JM109): >300 (>300) μg/ml | MBC [2]: >300 (>300) μg/ml | MBC [3]: >300 (>300) μg/ml | MBC [4]: >300 (>300) μg/ml | MBC [5]: >300 (>300) μg/ml | MBC [6]: >300 (>300) μg/ml | MBC [7]: >300 (>300) μg/ml

HRRSVAHQQQASLHVKTNQLPSPNTVRQQL-OH [NP4P]
MBC [1]: >300 (>300) μg/ml | MBC (Escherichia coli JM109): >300 (>300) μg/ml | MBC [2]: >300 (>300) μg/ml | MBC [3]: >300 (>300) μg/ml | MBC [4]: >300 (>300) μg/ml | MBC [5]: >300 (>300) μg/ml | MBC [6]: >300 (>300) μg/ml | MBC [7]: >300 (>300) μg/ml | enhancer activity for membrane-disruptive antimicrobial peptides [8]: enhancer activity for membrane-disruptive antimicrobial peptides was detected

RRRFVAEQDAIHSRVSREVPTLSDSV-OH [P1P]
MBC [1]: > 300 µg/mL | MBC (Escherichia coli JM109): > 300 µg/mL | MBC [2]: > 300 µg/mL | MBC [3]: > 300 µg/mL | MBC [4]: > 300 µg/mL | MBC [5]: > 300 µg/mL | MBC [6]: >300 (>300) μg/ml | MBC [7]: > 300 µg/mL | Hemolytic activity (%) (Human erythrocytes): 0.00 ± 0.00%

RRRFVAQQNAIHSRVSRQVPTLSNSV-OH [NP1P]
MBC [1]: 30 µg/mL | MBC (Escherichia coli JM109): 10 µg/mL | MBC [2]: 30 µg/mL | MBC [3]: 20 µg/mL | MBC [4]: 200 µg/mL | MBC [5]: 30 µg/mL | MBC [6]: >300 (>300) μg/ml | MBC [7]: 10 µg/mL | Hemolytic activity (%) (Human erythrocytes): 1.32 ± 0.02% | concentration causing dye-leakage (membrane damage) of PG/CL liposomes [9]: > 200 µg/mL | concentration causing dye-leakage (membrane disruption) of PC liposomes ([10]; PC only liposomes, 10 mM Tris-HCl pH 7.5 with 350 mM sucrose, room temperature): > 200 µg/mL

RRRSVGEEDAIPSHIEVNKFFLRKPAKEHI-OH [P3P]
MBC [1]: > 300 µg/mL | MBC (Escherichia coli JM109): > 300 µg/mL | MBC [2]: 200 µg/mL | MBC [3]: 70 µg/mL | MBC [4]: > 300 µg/mL | MBC [5]: > 300 µg/mL | MBC [6]: >300 (>300) μg/ml | MBC [7]: > 300 µg/mL | Hemolytic activity (%) (Human erythrocytes): 1.69 ± 0.05% | precipitation in the presence of PG/CL liposome [11]: not affected

RRRSVGQQNAIPSHIQVNKFFLRKPAKQHI-OH [NP3P]
MBC [1]: 20 µg/mL | MBC (Escherichia coli JM109): 7 µg/mL | MBC [2]: 10 µg/mL | MBC [3]: 20 µg/mL | MBC [4]: 7 µg/mL | MBC [5]: 20 µg/mL | MBC [6]: >300 (>300) μg/ml | MBC [7]: 5 µg/mL | Hemolytic activity (%) (Human erythrocytes): 2.61 ± 0.02% | concentration causing dye-leakage (membrane damage) of PG/CL liposomes [9]: ≥ 0.3 µg/mL | effect on PC liposome membrane (in words) ([10]; PC liposomes, data not shown): did not affect PC liposome membrane | precipitation in the presence of PG/CL liposome [11]: precipitated
